Results published in US4087432A, “1H-imidazo(4,5-b)pyridine compounds” (Eli Lilly and Company, priority 1975, dated 1978).

Experiments:
Sorghum = assay: General herbicidal effect alone/in combination, sorghum; format: in vivo; set-up: key: 0-10 scale: 0 = no injury, 10 = death; details: alone
Description: (§1) Various of the compounds to be employed as active agent in accordance with the present invention were evaluated for preemergent application to various species of plants. In this evaluation, a soil was prepared consisting of one part masonry sand and one part shredded top soil blended together in a cement mixer. One gallon of this soil was placed in a 25 × 35 cm. galvanized flat and was patted down with a bench brush until level. A three-row marker was used to make 21/2 cm. deep furrows in approximately two-fifths of the flat. Crop seeds consisting of four kernels of corn, five cotton seeds and five soybean seeds were placed in these furrows. A four-row template was then placed on the remaining soil and the indicated approximate numbers of each of the following seeds were planted, one species to each section: foxtail (millet), 80-100 seeds; velvetleaf (40-50 seeds); rough pigweed (150-250 seeds); and large crabgrass (100-150 seeds).
(§2) Sufficient soil was added to cover the entire flat. Thus, the weed seeds were covered to a depth of about 6 mm. and the crop seeds were covered to a depth of about 3 cm.
(§3) In assaying the effect of the composition as preemergent herbicides, a flat prepared as above, taken either on the day of planting or on the next day, was placed in a chamber equipped with a turntable and an air exhaust. The herbicidal composition, either a spray-type emulsion or a wettable powder, was applied to the flat with a modified DeVilbiss atomizer hooked to an air source. Twelve and one-half milliliters of the composition under test were applied to each flat either on the day of planting or the succeeding day. Injury ratings and observations as to type of injury were made eleven to twelve days after treatment. The injury rating scale used was as follows:
(§4) 4--death When more than one determination was carried out at a given rate, an average value was calculated for the injury rating. Each compound evaluated was formulated as a spray by one of the following procedures. In one method the particular compound was wetted by grinding in a mortar with one part of polyoxyethylene sorbitan monolaurate. Five hundred parts of water were added slowly to the resultant creamy paste to give an aqueous dispersion with a surfactant concentration of 0.2 percent. This dispersion was entirely satisfactory for spray application. In a second procedure the compound was dissolved in one volume of acetone, and the acetone solution was diluted with nineteen volumes of water containing 0.1 percent of polyoxyethylene sorbitan monolaurate.
(§5) 6-Chloro-1-hydroxy-2-(trifluoromethyl)-1H-imidazo(4,5-b)pyridine was evaluated in combination with 2-chloro-4-ethylamino-6-isopropylamino-s-triazine and separately in combination with 2-chloro-2',6'-diethyl-N-(methoxymethyl)acetanilide for the control of plants. The evaluations were conducted as described in Examples 49-52, except that the rates of compound differed and the species were different. General herbicidal effect was rated on a scale of 0-10, with 0 = no injury and 10 = death. Observations were also made for the following other specific phytotoxic effects.

Corn [1] = assay: General herbicidal effect alone/in combination, corn (second Corn column); format: in vivo; set-up: key: 0-10 scale: 0 = no injury, 10 = death; details: alone
Description: as §1, §2, §3, §4, §5

Morning glory = assay: General herbicidal effect alone/in combination, morning glory; format: in vivo; set-up: key: 0-10 scale: 0 = no injury, 10 = death; details: alone
Description: as §1, §2, §3, §4, §5

Barnyard Grass = assay: General herbicidal effect alone/in combination, barnyard grass; format: in vivo; set-up: key: 0-10 scale: 0 = no injury, 10 = death; details: alone
Description: as §1, §2, §3, §4, §5

Corn [2] = assay: General herbicidal effect alone/in combination, corn (first Corn column); format: in vivo; set-up: key: 0-10 scale: 0 = no injury, 10 = death; details: alone
Description: as §1, §2, §3, §4, §5

Rice = assay: General herbicidal effect alone/in combination, rice; format: in vivo; set-up: key: 0-10 scale: 0 = no injury, 10 = death; details: alone
Description: as §1, §2, §3, §4, §5

Pigweed [3] = assay: General herbicidal effect alone/in combination, pigweed; format: in vivo; set-up: key: 0-10 scale: 0 = no injury, 10 = death; details: alone
Description: as §1, §2, §3, §4, §5

Velvet Leaf [4] = assay: General herbicidal effect alone/in combination, velvetleaf; format: in vivo; set-up: key: 0-10 scale: 0 = no injury, 10 = death; details: alone
Description: as §1, §2, §3, §4, §5

Lambs Quarter = assay: General herbicidal effect alone/in combination, lambsquarter; format: in vivo; set-up: key: 0-10 scale: 0 = no injury, 10 = death; details: alone
Description: as §1, §2, §3, §4, §5

Ragweed = assay: General herbicidal effect alone/in combination, ragweed; format: in vivo; set-up: key: 0-10 scale: 0 = no injury, 10 = death; details: alone
Description: as §1, §2, §3, §4, §5

Foxtail Millet = assay: General herbicidal effect alone/in combination, foxtail millet; format: in vivo; set-up: key: 0-10 scale: 0 = no injury, 10 = death; details: alone
Description: as §1, §2, §3, §4, §5

Johnson Grass = assay: General herbicidal effect alone/in combination, Johnson grass; format: in vivo; details: alone
Description: as §1, §2, §3, §4, §5

Jimsonweed = assay: General herbicidal effect alone/in combination, jimsonweed; format: in vivo; set-up: key: 0-10 scale: 0 = no injury, 10 = death; details: alone
Description: as §1, §2, §3, §4, §5

Large Crabgrass = assay: General herbicidal effect alone/in combination, large crabgrass; format: in vivo; set-up: key: 0-10 scale: 0 = no injury, 10 = death; details: alone
Description: as §1, §2, §3, §4, §5

Corn [5] = assay: Postemergent injury rating, corn; format: in vivo; set-up: key: injury rating scale, 4 = death; details: 8 lbs/acre
Description: as §1, §2, §3, §4
(§6) Representative compounds of the present invention were evaluated for postemergent application to plants including corn and several weed species. The evaluation was carried out in accordance with the procedures of Examples 49-52 except that the test solutions were applied about 9-12 days after the preparation and seeding of the flats.

Foxtail = assay: Postemergent injury rating, foxtail; format: in vivo, foxtail (millet); set-up: key: injury rating scale, 4 = death; details: 8 lbs/acre
Description: as §1, §2, §3, §4, §6

Crabgrass = assay: Postemergent injury rating, crabgrass; format: in vivo, large crabgrass; set-up: key: injury rating scale, 4 = death; details: 8 lbs/acre
Description: as §1, §2, §3, §4, §6

Velvet Leaf [6] = assay: Postemergent injury rating, velvetleaf; format: in vivo; details: 8 lbs/acre
Description: as §1, §2, §3, §4, §6

Pigweed [7] = assay: Postemergent injury rating, pigweed; format: in vivo, rough pigweed; set-up: key: injury rating scale, 4 = death; details: 8 lbs/acre
Description: as §1, §2, §3, §4, §6

CCc1cccc(CC)c1N(COC)C(=O)CCl [C, 2-chloro-2',6'-diethyl-N-(methoxymethyl)acetanilide]
herbicidal effect, Sorghum (Sorghum; 0.5 lbs/A): 3SF | herbicidal effect, Sorghum (Sorghum; 1.0 lbs/A): 4SF | herbicidal effect, Sorghum (Sorghum; 2.0 lbs/A): 8SF | herbicidal effect, Sorghum (Sorghum; 4.0 lbs/A): 8SFR | herbicidal effect, Corn (Corn [1]; 0.5 lbs/A): 0 | herbicidal effect, Corn (Corn [1]; 1.0 lbs/A): 0 | herbicidal effect, Corn (Corn [1]; 2.0 lbs/A): 1SB | herbicidal effect, Corn (Corn [1]; 4.0 lbs/A): 2S | herbicidal effect, Morning glory (Morning glory; 0.5 lbs/A): 0 | herbicidal effect, Morning glory (Morning glory; 1.0 lbs/A): 2S | herbicidal effect, Morning glory (Morning glory; 2.0 lbs/A): 2SF | herbicidal effect, Morning glory (Morning glory; 4.0 lbs/A): 3SF | herbicidal effect, Barnyard Grass (Barnyard Grass; 0.5 lbs/A): 5SR | herbicidal effect, Barnyard Grass (Barnyard Grass; 1.0 lbs/A): 8S | herbicidal effect, Barnyard Grass (Barnyard Grass; 2.0 lbs/A): 8RSF | herbicidal effect, Barnyard Grass (Barnyard Grass; 4.0 lbs/A): 9.5RS | herbicidal effect, Corn (Corn [2]; 0.5 lbs/A): 0 | herbicidal effect, Corn (Corn [2]; 1.0 lbs/A): 0 | herbicidal effect, Corn (Corn [2]; 2.0 lbs/A): 2S | herbicidal effect, Corn (Corn [2]; 4.0 lbs/A): 2S | herbicidal effect, Rice (Rice; 0.5 lbs/A): 0 | herbicidal effect, Rice (Rice; 1.0 lbs/A): 9RS | herbicidal effect, Rice (Rice; 2.0 lbs/A): 10N | herbicidal effect, Rice (Rice; 4.0 lbs/A): 10N | herbicidal effect, Pigweed (Pigweed [3]; 0.5 lbs/A): 7S | herbicidal effect, Pigweed (Pigweed [3]; 1.0 lbs/A): 8SR | herbicidal effect, Pigweed (Pigweed [3]; 2.0 lbs/A): 10N | herbicidal effect, Pigweed (Pigweed [3]; 4.0 lbs/A): 10N | herbicidal effect, Velvet leaf (Velvet Leaf [4]; 0.5 lbs/A): 2S | herbicidal effect, Velvet leaf (Velvet Leaf [4]; 1.0 lbs/A): 3S | herbicidal effect, Velvet leaf (Velvet Leaf [4]; 2.0 lbs/A): 6S | herbicidal effect, Velvet leaf (Velvet Leaf [4]; 4.0 lbs/A): 3S | herbicidal effect, Lambs Quarter (Lambs Quarter; 1.0 lbs/A): 5S | herbicidal effect, Lambs Quarter (Lambs Quarter; 2.0 lbs/A): 10N | herbicidal effect, Lambs Quarter (Lambs Quarter; 4.0 lbs/A): 10N | herbicidal effect, Ragweed (Ragweed; 0.5 lbs/A): 0 | herbicidal effect, Ragweed (Ragweed; 1.0 lbs/A): 5S | herbicidal effect, Ragweed (Ragweed; 2.0 lbs/A): 7S | herbicidal effect, Ragweed (Ragweed; 4.0 lbs/A): 8SR | herbicidal effect, Foxtail Millet (Foxtail Millet; 0.5 lbs/A): 9SBR | herbicidal effect, Foxtail Millet (Foxtail Millet; 1.0 lbs/A): 9RSB | herbicidal effect, Foxtail Millet (Foxtail Millet; 2.0 lbs/A): 9.5RSB | herbicidal effect, Foxtail Millet (Foxtail Millet; 4.0 lbs/A): 10D | herbicidal effect, Johnson Grass (Johnson Grass; 0.5 lbs/A): 9RS | herbicidal effect, Johnson Grass (Johnson Grass; 1.0 lbs/A): 9RS | herbicidal effect, Johnson Grass (Johnson Grass; 2.0 lbs/A): 9.5RS | herbicidal effect, Johnson Grass (Johnson Grass; 4.0 lbs/A): 10N | herbicidal effect, Jimsonweed (Jimsonweed; 0.5 lbs/A): 0 | herbicidal effect, Jimsonweed (Jimsonweed; 1.0 lbs/A): 3S | herbicidal effect, Jimsonweed (Jimsonweed; 2.0 lbs/A): 4S | herbicidal effect, Jimsonweed (Jimsonweed; 4.0 lbs/A): 5S | herbicidal effect, Large Crabgrass (Large Crabgrass; 0.5 lbs/A): 8RS | herbicidal effect, Large Crabgrass (Large Crabgrass; 1.0 lbs/A): 9RS | herbicidal effect, Large Crabgrass (Large Crabgrass; 2.0 lbs/A): 10N | herbicidal effect, Large Crabgrass (Large Crabgrass; 4.0 lbs/A): 10N

CCNc1nc(Cl)nc(NC(C)C)n1 [B, 2-chloro-4-ethylamino-6-isopropylamino-s-triazine]
herbicidal effect, Sorghum (Sorghum; 0.25 lbs/A): 0 | herbicidal effect, Sorghum (Sorghum; 0.5 lbs/A): 0 | herbicidal effect, Sorghum (Sorghum; 1.0 lbs/A): 1B | herbicidal effect, Sorghum (Sorghum; 2.0 lbs/A): 2B | herbicidal effect, Corn (Corn [1]; 0.25 lbs/A): 0 | herbicidal effect, Corn (Corn [1]; 0.5 lbs/A): 0 | herbicidal effect, Corn (Corn [1]; 1.0 lbs/A): 0 | herbicidal effect, Corn (Corn [1]; 2.0 lbs/A): 0 | herbicidal effect, Morning glory (Morning glory; 0.25 lbs/A): 8BS | herbicidal effect, Morning glory (Morning glory; 0.5 lbs/A): 9BS | herbicidal effect, Morning glory (Morning glory; 1.0 lbs/A): 10D | herbicidal effect, Morning glory (Morning glory; 2.0 lbs/A): 10D | herbicidal effect, Barnyard Grass (Barnyard Grass; 0.25 lbs/A): 2S | herbicidal effect, Barnyard Grass (Barnyard Grass; 0.5 lbs/A): 5SB | herbicidal effect, Barnyard Grass (Barnyard Grass; 1.0 lbs/A): 4SB | herbicidal effect, Barnyard Grass (Barnyard Grass; 2.0 lbs/A): 8BS | herbicidal effect, Corn (Corn [2]; 0.25 lbs/A): 0 | herbicidal effect, Corn (Corn [2]; 0.5 lbs/A): 0 | herbicidal effect, Corn (Corn [2]; 1.0 lbs/A): 0 | herbicidal effect, Corn (Corn [2]; 2.0 lbs/A): 0 | herbicidal effect, Rice (Rice; 0.25 lbs/A): 4B | herbicidal effect, Rice (Rice; 0.5 lbs/A): 4B | herbicidal effect, Rice (Rice; 1.0 lbs/A): 7B | herbicidal effect, Rice (Rice; 2.0 lbs/A): 8B | herbicidal effect, Pigweed (Pigweed [3]; 0.25 lbs/A): 9BS | herbicidal effect, Pigweed (Pigweed [3]; 0.5 lbs/A): 10D | herbicidal effect, Pigweed (Pigweed [3]; 1.0 lbs/A): 10D | herbicidal effect, Pigweed (Pigweed [3]; 2.0 lbs/A): 10D | herbicidal effect, Velvet leaf (Velvet Leaf [4]; 0.25 lbs/A): 3S | herbicidal effect, Velvet leaf (Velvet Leaf [4]; 0.5 lbs/A): 3S | herbicidal effect, Velvet leaf (Velvet Leaf [4]; 1.0 lbs/A): 7BS | herbicidal effect, Velvet leaf (Velvet Leaf [4]; 2.0 lbs/A): 10D | herbicidal effect, Lambs Quarter (Lambs Quarter; 0.25 lbs/A): 9BS | herbicidal effect, Lambs Quarter (Lambs Quarter; 0.5 lbs/A): 9BS | herbicidal effect, Lambs Quarter (Lambs Quarter; 1.0 lbs/A): 9.5BS | herbicidal effect, Lambs Quarter (Lambs Quarter; 2.0 lbs/A): 9.5BS | herbicidal effect, Ragweed (Ragweed; 0.25 lbs/A): 5S | herbicidal effect, Ragweed (Ragweed; 0.5 lbs/A): 7SB | herbicidal effect, Ragweed (Ragweed; 1.0 lbs/A): 8BS | herbicidal effect, Ragweed (Ragweed; 2.0 lbs/A): 10D | herbicidal effect, Foxtail Millet (Foxtail Millet; 0.25 lbs/A): 0 | herbicidal effect, Foxtail Millet (Foxtail Millet; 0.5 lbs/A): 0 | herbicidal effect, Foxtail Millet (Foxtail Millet; 1.0 lbs/A): 4SB | herbicidal effect, Foxtail Millet (Foxtail Millet; 2.0 lbs/A): 5SB | herbicidal effect, Johnson Grass (Johnson Grass; 0.25 lbs/A): 3S | herbicidal effect, Johnson Grass (Johnson Grass; 0.5 lbs/A): 0 | herbicidal effect, Johnson Grass (Johnson Grass; 1.0 lbs/A): 0 | herbicidal effect, Johnson Grass (Johnson Grass; 2.0 lbs/A): 2S | herbicidal effect, Jimsonweed (Jimsonweed; 0.25 lbs/A): 9BS | herbicidal effect, Jimsonweed (Jimsonweed; 0.5 lbs/A): 9BS | herbicidal effect, Jimsonweed (Jimsonweed; 1.0 lbs/A): 9BS | herbicidal effect, Jimsonweed (Jimsonweed; 2.0 lbs/A): 9BS | herbicidal effect, Large Crabgrass (Large Crabgrass; 0.25 lbs/A): 0 | herbicidal effect, Large Crabgrass (Large Crabgrass; 0.5 lbs/A): 2S | herbicidal effect, Large Crabgrass (Large Crabgrass; 1.0 lbs/A): 5S | herbicidal effect, Large Crabgrass (Large Crabgrass; 2.0 lbs/A): 6BS

Cc1cnc2nc(C(F)(F)F)n(O)c2c1 [6-methyl-1-hydroxy-2-(trifluoromethyl)-1H-imidazo(4,5-b)pyridine]
Injury Rating, Corn (Corn [5]): 1 | Injury Rating, Foxtail (Foxtail): 3 | Injury Rating, Crabgrass (Crabgrass): 3 | Injury Rating, Velvet Leaf (Velvet Leaf [6]): 1 | Injury Rating, Pigweed (Pigweed [7]): 3
